# Results: ChEMBL document CHEMBL3351234, “Discovery of novel 2,4-diarylaminopyrimidine analogues (DAAPalogues) showing potent inhibitory activities against both wild-type and mutant ALK kinases” (J Med Chem, 2015)
# How the values were obtained:
# physchem [1] = details: aqueous
# physchem [2] = details: aqueous; remark: listed apart in the source
# in vivo [3] = details: rat, po, 2.5 mg/kg
# in vivo [4] = details: rat, plasma, po, 2.5 mg/kg
structure (smiles),measurement,setting,value
CC(C)S(=O)(=O)c1ccccc1Nc1nc(Nc2cccc(NC(=O)CN)c2)ncc1Cl,solubility,physchem [1],< 100 µg/mL
same,solubility,physchem [2],4000 µg/mL
same,half-life,in vivo [3],30 min
same,AUC(0-inf),in vivo [4],454 ng·h/mL
